Reference: publication PMC10726920 (Cancer Medicine, 2023)

Test system: patients with acute lymphoblastic leukemia
Experiment: Adverse events (CTCAE version 4.0), Phase II study NCI-9775 of sapanisertib monotherapy
Assay type: in vivo
Settings: treatment-related; 15 evaluable
Description: Responders could continue on the same dose or proceed to allogeneic hematopoietic cell transplant if available. Non‐responders (but tolerating drug) could increase their dose to 4 mg orally for 21 days every 28 days (dose level + 1) starting in Cycle 3 and 4 mg orally continuously (dose level + 2) starting in Cycle 5 (if they tolerated dose level + 1). Dose reduction was recommended for toxicity (dose level − 1: 2 mg daily for 21 days every 28 days; dose level − 2: 2 mg daily for 5 days/week for 3 weeks every 4 weeks). […] Intrathecal chemotherapy was allowed per institutional standard policies. In‐home blood glucose monitoring was performed daily to monitor blood sugar (a glucometer was given to every patient on the study). Discontinuation of therapy was recommended for disease progression, severe toxicity, lack of response, proceeding to hematopoietic cell transplant, or prolonged delay of the subsequent cycle (>1 month delay for therapy‐related toxicity or >2 months delay for unrelated toxicity).
The primary endpoint was the proportion of successes, which was estimated by the number of successes divided by the total number of evaluable patients. Secondary endpoints of duration of response (CR or CRi) and overall survival (OS) were evaluated using Kaplan–Meier techniques; the frequency of proceeding to allogeneic stem cell transplant after achieving response and adverse events (AEs), as evaluated using reported the NCI Common Terminology Criteria for Adverse Events (CTCAE) version 4.0, were presented using descriptive statistics.

CC(C)n1nc(-c2ccc3oc(N)nc3c2)c2c(N)ncnc21 [sapanisertib]
Aspartate aminotransferase increased grade 2: 0 (0) N (%) | Aspartate aminotransferase increased grade 3: 0 (0) N (%) | Aspartate aminotransferase increased grade 4: 0 (0) N (%) | Aspartate aminotransferase increased grade 5: 0 (0) N (%) | Bloating grade 1: 1 (7) N (%) | Bloating grade 2: 0 (0) N (%) | Bloating grade 3: 0 (0) N (%) | Bloating grade 4: 0 (0) N (%) | Bloating grade 5: 0 (0) N (%) | Blood bilirubin increased grade 1: 1 (7) N (%) | Blood bilirubin increased grade 2: 0 (0) N (%) | Blood bilirubin increased grade 3: 1 (7) N (%) | Blood bilirubin increased grade 4: 0 (0) N (%) | Blood bilirubin increased grade 5: 0 (0) N (%) | Confusion grade 1: 0 (0) N (%) | Confusion grade 2: 0 (0) N (%) | Confusion grade 3: 1 (7) N (%) | Confusion grade 4: 0 (0) N (%) | Confusion grade 5: 0 (0) N (%) | Constipation grade 1: 1 (7) N (%) | Constipation grade 2: 0 (0) N (%) | Constipation grade 3: 0 (0) N (%) | Constipation grade 4: 0 (0) N (%) | Constipation grade 5: 0 (0) N (%) | Cough grade 1: 1 (7) N (%) | Cough grade 2: 0 (0) N (%) | Cough grade 3: 0 (0) N (%) | Cough grade 4: 0 (0) N (%) | Cough grade 5: 0 (0) N (%) | Delirium grade 1: 0 (0) N (%) | Delirium grade 2: 0 (0) N (%) | Delirium grade 3: 1 (7) N (%) | Delirium grade 4: 0 (0) N (%) | Delirium grade 5: 0 (0) N (%) | Diarrhea grade 1: 1 (7) N (%) | Diarrhea grade 2: 0 (0) N (%) | Diarrhea grade 3: 0 (0) N (%) | Diarrhea grade 4: 0 (0) N (%) | Diarrhea grade 5: 0 (0) N (%) | Dysgeusia grade 1: 1 (7) N (%) | Dysgeusia grade 2: 0 (0) N (%) | Dysgeusia grade 3: 0 (0) N (%) | Dysgeusia grade 4: 0 (0) N (%) | Dysgeusia grade 5: 0 (0) N (%) | Edema limbs grade 1: 1 (7) N (%) | Edema limbs grade 2: 0 (0) N (%) | Edema limbs grade 3: 0 (0) N (%) | Edema limbs grade 4: 0 (0) N (%) | Edema limbs grade 5: 0 (0) N (%) | Fall grade 1: 0 (0) N (%) | Fall grade 2: 1 (7) N (%) | Fall grade 3: 0 (0) N (%) | Fall grade 4: 0 (0) N (%) | Fall grade 5: 0 (0) N (%) | Fatigue grade 1: 1 (7) N (%) | Fatigue grade 2: 0 (0) N (%) | Fatigue grade 3: 1 (7) N (%) | Fatigue grade 4: 0 (0) N (%) | Fatigue grade 5: 0 (0) N (%) | Febrile neutropenia grade 1: 0 (0) N (%) | Febrile neutropenia grade 2: 0 (0) N (%) | Febrile neutropenia grade 3: 1 (7) N (%) | Febrile neutropenia grade 4: 0 (0) N (%) | Febrile neutropenia grade 5: 0 (0) N (%) | Fibrinogen decreased grade 1: 0 (0) N (%) | Fibrinogen decreased grade 2: 0 (0) N (%) | Fibrinogen decreased grade 3: 1 (7) N (%) | Fibrinogen decreased grade 4: 0 (0) N (%) | Fibrinogen decreased grade 5: 0 (0) N (%) | Hyperglycemia grade 1: 0 (0) N (%) | Hyperglycemia grade 2: 0 (0) N (%) | Hyperglycemia grade 3: 2 (13) N (%) | Hyperglycemia grade 4: 0 (0) N (%) | Hyperglycemia grade 5: 0 (0) N (%) | Hypertriglyceridemia grade 1: 1 (7) N (%) | Hypertriglyceridemia grade 2: 0 (0) N (%) | Hypertriglyceridemia grade 3: 0 (0) N (%) | Hypertriglyceridemia grade 4: 0 (0) N (%) | Hypertriglyceridemia grade 5: 0 (0) N (%) | Leukocytosis grade 1: 0 (0) N (%) | Leukocytosis grade 2: 0 (0) N (%) | Leukocytosis grade 3: 1 (7) N (%) | Leukocytosis grade 4: 0 (0) N (%) | Leukocytosis grade 5: 0 (0) N (%) | Lymphocyte count decreased grade 1: 0 (0) N (%) | Lymphocyte count decreased grade 2: 0 (0) N (%) | Lymphocyte count decreased grade 3: 2 (13) N (%) | Lymphocyte count decreased grade 4: 0 (0) N (%) | Lymphocyte count decreased grade 5: 0 (0) N (%) | Mucositis oral grade 1: 0 (0) N (%) | Mucositis oral grade 2: 0 (0) N (%) | Mucositis oral grade 3: 3 (20) N (%) | Mucositis oral grade 4: 0 (0) N (%) | Mucositis oral grade 5: 0 (0) N (%) | Neoplasms grade 1: 0 (0) N (%) | Neoplasms grade 2: 0 (0) N (%) | Neoplasms grade 3: 1 (7) N (%) | Neoplasms grade 4: 0 (0) N (%) | Neoplasms grade 5: 0 (0) N (%) | Neutrophil count decreased grade 1: 0 (0) N (%) | Neutrophil count decreased grade 2: 0 (0) N (%) | Neutrophil count decreased grade 3: 0 (0) N (%) | Neutrophil count decreased grade 4: 1 (7) N (%) | Neutrophil count decreased grade 5: 0 (0) N (%) | Oral pain grade 1: 1 (7) N (%) | Oral pain grade 2: 0 (0) N (%) | Oral pain grade 3: 0 (0) N (%) | Oral pain grade 4: 0 (0) N (%) | Oral pain grade 5: 0 (0) N (%) | Paresthesia grade 1: 1 (7) N (%) | Paresthesia grade 2: 0 (0) N (%) | Paresthesia grade 3: 0 (0) N (%) | Paresthesia grade 4: 0 (0) N (%) | Paresthesia grade 5: 0 (0) N (%) | Pharyngolaryngeal pain grade 1: 0 (0) N (%) | Pharyngolaryngeal pain grade 2: 1 (7) N (%) | Pharyngolaryngeal pain grade 3: 0 (0) N (%) | Pharyngolaryngeal pain grade 4: 0 (0) N (%) | Pharyngolaryngeal pain grade 5: 0 (0) N (%) | Platelet count decreased grade 1: 0 (0) N (%) | Platelet count decreased grade 2: 0 (0) N (%) | Platelet count decreased grade 3: 1 (7) N (%) | Platelet count decreased grade 4: 3 (20) N (%) | Platelet count decreased grade 5: 0 (0) N (%) | Pneumonitis grade 1: 0 (0) N (%) | Pneumonitis grade 2: 0 (0) N (%) | Pneumonitis grade 3: 1 (7) N (%) | Pneumonitis grade 4: 0 (0) N (%) | Pneumonitis grade 5: 0 (0) N (%) | Pruritus grade 1: 1 (7) N (%) | Pruritus grade 2: 0 (0) N (%) | Pruritus grade 3: 0 (0) N (%) | Pruritus grade 4: 0 (0) N (%) | Pruritus grade 5: 0 (0) N (%) | Resp, thoracic, mediastinal grade 1: 0 (0) N (%) | Resp, thoracic, mediastinal grade 2: 0 (0) N (%) | Resp, thoracic, mediastinal grade 3: 0 (0) N (%) | Resp, thoracic, mediastinal grade 4: 1 (7) N (%) | Resp, thoracic, mediastinal grade 5: 0 (0) N (%) | Vaginal inflammation grade 1: 0 (0) N (%) | Vaginal inflammation grade 2: 1 (7) N (%) | Vaginal inflammation grade 3: 0 (0) N (%) | Vaginal inflammation grade 4: 0 (0) N (%) | Vaginal inflammation grade 5: 0 (0) N (%) | Vomiting grade 1: 1 (7) N (%) | Vomiting grade 2: 0 (0) N (%) | Vomiting grade 3: 0 (0) N (%) | Vomiting grade 4: 0 (0) N (%) | Vomiting grade 5: 0 (0) N (%) | Wheezing grade 1: 0 (0) N (%) | Wheezing grade 2: 1 (7) N (%) | Wheezing grade 3: 0 (0) N (%) | Wheezing grade 4: 0 (0) N (%) | Wheezing grade 5: 0 (0) N (%) | White blood cell decreased grade 1: 0 (0) N (%) | White blood cell decreased grade 2: 0 (0) N (%) | White blood cell decreased grade 3: 0 (0) N (%) | White blood cell decreased grade 4: 2 (13) N (%) | White blood cell decreased grade 5: 0 (0) N (%)
